Measurements reported in US20260365670A1, “EGFR INHIBITORS AND USES THEREOF” (DIZAL (JIANGSU) PHARMACEUTICAL CO., LTD., priority 2022, published 2026).
Read-outs that look alike come from different tables or passages of the source.

Tests used:
EGFR[T790M/C797S/L858R] = target: T1, EGFR[T790M/C797S/L858R] (Homo sapiens, UniProt P00533, C797S/L858R/T790M); assay: Inhibition of EGFR[T790M/C797S/L858R] biochemical enzymatic activity (HTRF); conditions: EGFR T790M-C797S-L858R, 1 mM ATP, 1 h, room temperature, read-out: IC50 (nM) @T790M- C797S - L858R
T1 construct: purchased Carna Bio
Method in brief: (§1)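 Each enzyme was first added to plates holding compound. The reaction was then started with ATP (1 mM) and peptide substrate (1 μM). It was stopped after 1 h at room temperature with EDTA detection reagents and read at 615/665 nm to derive IC50s.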

PC-9 = assay: Cell proliferation assay, PC-9 cells (CellTiter-Glo, 72 hours); format: cell-based; conditions: PC9 cells, CellTiter-Glo, read-out: PC9 GI50
Method in brief: (§2)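 Ba/F3 cells (5000/well) and PC-9 cells (500/well, RPMI1640 with 10% FBS) were plated overnight and then dosed with a compound concentration series. Viable cells were read at day 0 (G0) and after treatment (G3). GI50 came from curve fits of G0-corrected proliferation relative to DMSO.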

EGFR Exon19Del = target: T2, EGFR Exon19Del (Homo sapiens, UniProt P00533, DEL746-750); assay: Inhibition of EGFR Exon19Del biochemical enzymatic activity (HTRF); conditions: EGFR Del19, 1 mM ATP, 1 h, room temperature, read-out: IC50 @Del19
T2 construct: purchased Carna Bio
T2 sequence (P00533 with tags, fused parts or gaps DEL746-750 limits assumed): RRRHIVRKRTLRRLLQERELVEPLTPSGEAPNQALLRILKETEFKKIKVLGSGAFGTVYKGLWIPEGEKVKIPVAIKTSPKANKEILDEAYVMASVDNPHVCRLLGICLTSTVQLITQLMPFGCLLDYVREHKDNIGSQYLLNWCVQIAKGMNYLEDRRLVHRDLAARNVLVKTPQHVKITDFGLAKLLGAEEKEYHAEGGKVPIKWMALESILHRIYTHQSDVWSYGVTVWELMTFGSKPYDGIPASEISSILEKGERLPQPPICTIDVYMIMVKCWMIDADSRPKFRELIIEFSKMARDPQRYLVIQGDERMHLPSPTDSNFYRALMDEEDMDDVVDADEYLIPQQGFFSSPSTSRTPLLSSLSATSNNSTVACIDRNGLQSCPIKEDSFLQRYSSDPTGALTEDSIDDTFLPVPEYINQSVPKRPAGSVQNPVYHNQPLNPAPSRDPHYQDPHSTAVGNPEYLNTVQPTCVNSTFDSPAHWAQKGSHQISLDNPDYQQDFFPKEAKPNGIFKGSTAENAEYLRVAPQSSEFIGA
Method in brief: as §1

EGFR L858R/T790M = target: T3, EGFR L858R/T790M (Homo sapiens, UniProt P00533, L858R/T790M); assay: Inhibition of EGFR L858R/T790M biochemical enzymatic activity (HTRF); conditions: EGFR L858R-T790M, 1 mM ATP, 1 h, room temperature, read-out: IC50 (nM) @L858R-T790M
T3 construct: purchased Carna Bio
Method in brief: as §1

A-431 = assay: Cell proliferation GI50, A-431 cells (Table 6); format: cell-based
EGFR (C797S L858R) = target: T4, EGFR (C797S L858R) (Homo sapiens, UniProt P00533, C797S/L858R); assay: Inhibition of EGFR (C797S L858R) biochemical enzymatic activity (HTRF); conditions: EGFR L858-C797S, 1 mM ATP, 1 h, room temperature, read-out: IC50 (nM) @L858-C797S
T4 construct: purchased signalchem
Method in brief: as §1

[1] = system: Ba/F3 cells expressing EGFR mutations; assay: Cell proliferation assay, Ba/F3 cells expressing EGFR mutations (CellTiter-Glo, 72 hours); format: cell-based; conditions: CellTiter-Glo
Method in brief: as §2

EGFR L858R = target: T5, EGFR L858R (Homo sapiens, UniProt P00533, L858R); assay: Inhibition of EGFR L858R biochemical enzymatic activity (HTRF); conditions: 1 mM ATP, 1 h, room temperature, read-out: IC50 (nM) @L858R
T5 construct: purchased Carna Bio
T5 sequence (P00533 25-1210 L858R): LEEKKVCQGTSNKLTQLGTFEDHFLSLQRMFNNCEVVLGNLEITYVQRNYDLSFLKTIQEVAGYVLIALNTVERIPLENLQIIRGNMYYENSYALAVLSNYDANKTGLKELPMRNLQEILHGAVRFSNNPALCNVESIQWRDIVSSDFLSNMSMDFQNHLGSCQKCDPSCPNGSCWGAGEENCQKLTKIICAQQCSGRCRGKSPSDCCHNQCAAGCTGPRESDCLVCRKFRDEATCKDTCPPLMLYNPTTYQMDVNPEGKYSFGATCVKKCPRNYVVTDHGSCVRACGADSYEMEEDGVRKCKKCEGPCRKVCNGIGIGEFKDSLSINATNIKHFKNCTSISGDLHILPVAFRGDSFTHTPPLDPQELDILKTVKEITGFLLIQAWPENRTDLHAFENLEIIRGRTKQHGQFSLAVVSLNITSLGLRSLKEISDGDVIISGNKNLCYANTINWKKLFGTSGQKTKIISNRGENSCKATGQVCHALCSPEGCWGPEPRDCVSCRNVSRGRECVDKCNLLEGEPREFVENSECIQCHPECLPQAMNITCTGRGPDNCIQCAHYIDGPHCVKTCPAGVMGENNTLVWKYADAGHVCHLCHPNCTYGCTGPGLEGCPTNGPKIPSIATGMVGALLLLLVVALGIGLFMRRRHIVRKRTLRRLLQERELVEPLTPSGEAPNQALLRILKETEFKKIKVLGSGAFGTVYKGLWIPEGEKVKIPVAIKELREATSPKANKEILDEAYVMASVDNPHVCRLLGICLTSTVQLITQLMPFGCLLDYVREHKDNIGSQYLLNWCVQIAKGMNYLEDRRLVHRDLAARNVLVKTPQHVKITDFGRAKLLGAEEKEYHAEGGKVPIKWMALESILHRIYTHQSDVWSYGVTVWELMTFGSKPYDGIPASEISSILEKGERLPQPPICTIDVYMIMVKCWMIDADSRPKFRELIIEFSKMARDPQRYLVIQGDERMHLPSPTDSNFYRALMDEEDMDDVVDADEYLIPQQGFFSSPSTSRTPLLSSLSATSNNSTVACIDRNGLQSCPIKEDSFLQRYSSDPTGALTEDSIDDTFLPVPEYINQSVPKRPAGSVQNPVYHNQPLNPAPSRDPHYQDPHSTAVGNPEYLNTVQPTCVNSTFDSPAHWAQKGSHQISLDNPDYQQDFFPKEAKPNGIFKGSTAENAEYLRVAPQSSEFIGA
Method in brief: as §1

EGFR Exon19Del/T790M = target: T6, EGFR Exon19Del/T790M (Homo sapiens, UniProt P00533, DEL746-750/T790M); assay: Inhibition of EGFR Exon19Del/T790M biochemical enzymatic activity (HTRF); conditions: EGFR Del19-T790M, 1 mM ATP, 1 h, room temperature, read-out: IC50 (nM) @Del19-T790M
T6 construct: purchased Carna Bio
T6 sequence (P00533 with tags, fused parts or gaps DEL746-750/T790M limits assumed): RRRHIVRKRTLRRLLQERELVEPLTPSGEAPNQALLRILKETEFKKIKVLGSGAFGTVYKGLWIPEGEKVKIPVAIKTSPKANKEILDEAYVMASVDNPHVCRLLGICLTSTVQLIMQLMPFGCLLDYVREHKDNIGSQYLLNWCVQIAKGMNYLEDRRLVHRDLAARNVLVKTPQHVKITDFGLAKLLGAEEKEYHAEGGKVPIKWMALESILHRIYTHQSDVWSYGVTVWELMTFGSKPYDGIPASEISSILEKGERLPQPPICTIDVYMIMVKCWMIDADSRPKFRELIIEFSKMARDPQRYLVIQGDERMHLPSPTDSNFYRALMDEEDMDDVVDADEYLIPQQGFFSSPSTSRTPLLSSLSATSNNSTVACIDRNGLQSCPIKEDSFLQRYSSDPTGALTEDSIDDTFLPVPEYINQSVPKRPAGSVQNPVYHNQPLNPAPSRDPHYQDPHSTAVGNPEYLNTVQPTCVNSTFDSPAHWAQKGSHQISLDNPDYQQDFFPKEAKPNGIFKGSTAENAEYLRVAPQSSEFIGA
Method in brief: as §1

[2] = target: T7, EGFR[T790M/C797S/d746-750] (Homo sapiens, UniProt P00533, C797S/DEL746-750/T790M); assay: Inhibition of EGFR[T790M/C797S/d746-750] biochemical enzymatic activity (HTRF); conditions: EGFR T790M-C797S-Del19, 1 mM ATP, 1 h, room temperature, read-out: IC50 (nM) @T790M - C797S - Del19
T7 construct: purchased Carna Bio
T7 sequence (P00533 with tags, fused parts or gaps DEL746-750/T790M/C797S limits assumed): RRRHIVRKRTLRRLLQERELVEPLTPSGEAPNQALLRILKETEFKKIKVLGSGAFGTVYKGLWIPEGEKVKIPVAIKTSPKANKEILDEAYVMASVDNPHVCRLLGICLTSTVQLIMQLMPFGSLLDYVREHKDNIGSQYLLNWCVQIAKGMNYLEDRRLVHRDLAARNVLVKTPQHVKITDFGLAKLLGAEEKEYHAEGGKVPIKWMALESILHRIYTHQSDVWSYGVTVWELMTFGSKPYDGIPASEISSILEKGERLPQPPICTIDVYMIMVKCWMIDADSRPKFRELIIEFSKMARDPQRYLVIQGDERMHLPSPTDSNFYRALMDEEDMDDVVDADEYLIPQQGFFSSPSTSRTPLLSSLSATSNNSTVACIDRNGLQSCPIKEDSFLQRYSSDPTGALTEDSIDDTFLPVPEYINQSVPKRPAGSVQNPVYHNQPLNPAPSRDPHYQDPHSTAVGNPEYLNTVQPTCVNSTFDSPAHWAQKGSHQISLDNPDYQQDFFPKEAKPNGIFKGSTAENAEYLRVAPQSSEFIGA
Method in brief: as §1

EGFR (d746-750 C797S) = target: T8, EGFR (d746-750 C797S) (Homo sapiens, UniProt P00533, C797S/DEL746-750); assay: Inhibition of EGFR (d746-750 C797S) biochemical enzymatic activity (HTRF); conditions: EGFR Del19-C797S, 1 mM ATP, 1 h, room temperature, read-out: IC50 (nM) @Del19-C797S
T8 construct: purchased signalchem
T8 sequence (P00533 with tags, fused parts or gaps DEL746-750/C797S limits assumed): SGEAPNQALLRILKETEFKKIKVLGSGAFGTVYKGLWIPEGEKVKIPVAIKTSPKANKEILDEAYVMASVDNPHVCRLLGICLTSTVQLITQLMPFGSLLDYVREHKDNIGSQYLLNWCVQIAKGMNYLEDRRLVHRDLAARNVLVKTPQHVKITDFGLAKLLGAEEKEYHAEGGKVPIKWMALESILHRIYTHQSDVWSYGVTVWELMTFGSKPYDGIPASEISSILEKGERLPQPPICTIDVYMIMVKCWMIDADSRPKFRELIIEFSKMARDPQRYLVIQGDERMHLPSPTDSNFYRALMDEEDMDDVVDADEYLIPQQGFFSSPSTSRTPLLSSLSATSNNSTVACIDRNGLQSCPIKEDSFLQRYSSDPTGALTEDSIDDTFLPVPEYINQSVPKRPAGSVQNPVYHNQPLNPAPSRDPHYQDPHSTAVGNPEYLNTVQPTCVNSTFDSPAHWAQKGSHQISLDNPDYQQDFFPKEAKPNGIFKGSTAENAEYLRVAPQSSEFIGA
Method in brief: as §1

EGFR wild type = target: T9, EGFR wild type (Homo sapiens, UniProt P00533); assay: Inhibition of EGFR wild type biochemical enzymatic activity (HTRF); conditions: EGFR WT, 1 mM ATP, 1 h, room temperature, read-out: IC50 (nM) @WT
T9 construct: purchased Carna Bio
T9 sequence (P00533 25-1210): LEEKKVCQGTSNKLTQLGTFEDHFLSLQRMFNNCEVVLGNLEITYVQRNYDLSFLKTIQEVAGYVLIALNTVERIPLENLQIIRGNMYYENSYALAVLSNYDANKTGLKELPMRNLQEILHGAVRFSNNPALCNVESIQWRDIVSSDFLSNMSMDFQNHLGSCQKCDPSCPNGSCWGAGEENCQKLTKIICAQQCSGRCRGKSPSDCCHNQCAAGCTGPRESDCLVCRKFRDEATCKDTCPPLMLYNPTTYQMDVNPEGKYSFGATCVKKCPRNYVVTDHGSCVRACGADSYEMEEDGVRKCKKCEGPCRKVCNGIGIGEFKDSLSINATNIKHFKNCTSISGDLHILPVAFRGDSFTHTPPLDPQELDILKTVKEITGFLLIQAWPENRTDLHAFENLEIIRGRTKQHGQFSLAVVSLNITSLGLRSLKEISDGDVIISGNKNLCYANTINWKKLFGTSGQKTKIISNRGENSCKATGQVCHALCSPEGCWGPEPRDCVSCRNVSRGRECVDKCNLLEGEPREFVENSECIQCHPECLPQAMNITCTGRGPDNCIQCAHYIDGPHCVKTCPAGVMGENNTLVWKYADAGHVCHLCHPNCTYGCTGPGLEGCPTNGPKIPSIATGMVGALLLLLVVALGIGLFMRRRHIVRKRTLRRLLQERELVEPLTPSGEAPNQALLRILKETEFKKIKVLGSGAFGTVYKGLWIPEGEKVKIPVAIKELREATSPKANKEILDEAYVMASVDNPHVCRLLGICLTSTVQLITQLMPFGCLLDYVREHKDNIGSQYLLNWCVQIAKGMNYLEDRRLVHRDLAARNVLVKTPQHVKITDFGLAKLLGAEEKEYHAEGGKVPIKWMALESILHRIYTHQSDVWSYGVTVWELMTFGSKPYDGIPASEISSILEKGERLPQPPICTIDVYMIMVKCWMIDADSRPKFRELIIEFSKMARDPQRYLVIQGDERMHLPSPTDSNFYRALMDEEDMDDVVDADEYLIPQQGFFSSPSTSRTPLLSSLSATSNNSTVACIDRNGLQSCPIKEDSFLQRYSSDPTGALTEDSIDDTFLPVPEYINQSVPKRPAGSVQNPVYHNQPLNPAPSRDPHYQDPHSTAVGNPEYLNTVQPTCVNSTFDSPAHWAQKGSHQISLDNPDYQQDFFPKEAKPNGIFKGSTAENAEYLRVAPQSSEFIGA
Method in brief: as §1

[3] = Homo sapiens, A-431, A-431 cells
[4] = Mus musculus, BaF3, 72 h, BaF3 cells, EGFR DEL19-C797S, read-out: DEL19-C797S/BaF3 GI50
[5] = Mus musculus, BaF3, 72 h, BaF3 cells, EGFR DEL19-T790-C797S, read-out: DEL19-T790-C797S/BaF3 GI50
[6] = Mus musculus, BaF3, 72 h, BaF3 cells, EGFR L858R, read-out: L858R/BaF3 GI50
[7] = Mus musculus, BaF3, 72 h, BaF3 cells, EGFR L858R-C797S, read-out: L858R-C797S/BaF3 GI50
[8] = Mus musculus, BaF3, 72 h, BaF3 cells, EGFR L858R-T790-C797S, read-out: L858R-T790-C797S/BaF3 GI50
[9] = Mus musculus, BaF3, 72 h, BaF3 cells, EGFR L858R-T790M, read-out: L858R-T790M/BaF3 GI50
[10] = Mus musculus, BaF3, 72 h, EGFR DEL19-T790M, read-out: DEL19-T790M GI50
[11] = BaF3 cells, EGFR DEL19-C797S, read-out: DEL19-C797S/BaF3 GI50
[12] = BaF3 cells, EGFR DEL19-T790-C797S, read-out: DEL19-T790-C797S/BaF3 GI50
[13] = BaF3 cells, EGFR L858R, read-out: L858R/BaF3 GI50
[14] = BaF3 cells, EGFR L858R-C797S, read-out: L858R-C797S/BaF3 GI50
[15] = BaF3 cells, EGFR L858R-T790-C797S, read-out: L858R-T790-C797S/BaF3 GI50
[16] = BaF3 cells, EGFR L858R-T790M, read-out: L858R-T790M/BaF3 GI50
[17] = EGFR DEL19-T790M, read-out: DEL19-T790M GI50

Structure (SMILES) | IC50 (EGFR[T790M/C797S/L858R]) | GI50 (PC-9; Homo sapiens, PC-9, 72 h) | IC50 (EGFR Exon19Del) | IC50 (EGFR L858R/T790M) | GI50 (A-431; [3]) | IC50 (EGFR (C797S L858R)) | GI50 [1, 4] | GI50 [1, 5] | GI50 [1, 6] | GI50 [1, 7] | GI50 [1, 8] | GI50 [1, 9] | GI50 [1, 10] | IC50 (EGFR L858R) | IC50 (EGFR Exon19Del/T790M) | IC50 [2] | IC50 (EGFR (d746-750 C797S)) | IC50 (EGFR wild type) | GI50 (PC-9) | GI50 [1, 11] | other results
C[C@@H]1CCCOc2c(cnn2C)-c2cc(cn(C)c2=O)C(=O)Nc2nc3ccc(N4CCC(N5CCOCC5)C4)cc3n2C1 (stereo partly drawn) [Example A28] | 100 nM | 38 nM | 21 nM | 137 nM | 452 nM | 93 nM | 2.4 nM | 4.7 nM | 4.5 nM | 16 nM | 3.6 nM | 9.4 nM | 6.7 nM | 174 nM | 22 nM | 21 nM | 14 nM | 4140 nM |  |  | 
CN1CCN(C2CCN(c3ccc4nc5n(c4c3)C34CCC(CN(CCOc6c(cnn6C)-c6cc(cn(C)c6=O)C(=O)N5)C3)C4)C2)CC1 (single isomer, unassigned) [Example A80B1, 15,21-Dimethyl-5-[3-(4-methylpiperazin-1-yl)pyrrolidin-1-yl]-23-oxa-2,9,11,15,20,21,26-heptaazaheptacyclo[24.4.1.1^{1,28}.1^{13,17}.0^{2,10}.0^{3,8}.0^{18,22}]tritriaconta-3,5,7,9,13,17(33),18(22),19-octaene-12,16-dione] | 6.7 nM |  | 3.2 nM | 7.8 nM |  | 8.8 nM |  |  |  |  |  |  |  | 7.2 nM | 6.2 nM | 5.1 nM | 3.1 nM | 9.3 nM | 11 nM | 0.55 nM | GI50 (A-431; A-431 cells): 6140 nM; GI50 [1, 12]: 1 nM; GI50 [1, 13]: 1.2 nM; GI50 [1, 14]: 3 nM; GI50 [1, 15]: 1 nM; GI50 [1, 16]: 4.2 nM; GI50 [1, 17]: 1 nM
C[C@@H]1CCCOc2c(cnn2C)-c2cc(cn(C)c2=O)C(=O)Nc2nc3ccc(N4CCN(C(=O)OC(C)(C)C)CC4)cc3n2C1 [Example A54] | 10 nM | 245 nM | 118 nM | 213 nM | 1910 nM | 887 nM | 32 nM | 104 nM | 192 nM | 188 nM | 228 nM | 288 nM | 153 nM | 3040 nM | 31 nM | 31 nM | 41 nM | > 5000 nM |  |  | 
CN1CCC2(CN(c3ccc4nc5n(c4c3)C34CCC(CN(CCOc6c(cnn6C)-c6cc(cn(C)c6=O)C(=O)N5)C3)C4)C2)C(F)(F)C1 (single isomer, unassigned) [Example A91A] | > 5000 nM |  | 740 nM | > 5000 nM | 1180 nM | > 5000 nM |  |  |  |  |  |  |  | 3720 nM | > 5000 nM | > 5000 nM | 1650 nM | > 5000 nM | 1300 nM | 74 nM | GI50 [1, 12]: 146 nM; GI50 [1, 13]: 324 nM; GI50 [1, 14]: 303 nM; GI50 [1, 15]: 366 nM; GI50 [1, 16]: 884 nM; GI50 [1, 17]: 231 nM
C[C@@H]1CCCOc2c(cnn2C)-c2cc(cn(C)c2=O)C(=O)Nc2nc3ccc(Br)cc3n2C1 [Example M3, (11R)-16-Bromo-5,11,26-trimethyl-7-oxa-4,5,13,20,22,26-hexaazapentacyclo[22.3.1.0^{2,6}.0^{13,21}.0^{14,19}]octacosa-1(28),2(6),3,14,16,18,20,24-octaene-23,27-dione] | 2470 nM | 252 nM | 204 nM | 2190 nM | 1950 nM | 1700 nM | 89 nM | 364 nM | 257 nM | 344 nM | 159 nM | 982 nM | 300 nM | 2460 nM | 27 nM | 19 nM | 60 nM | > 5000 nM |  |  | 
C[C@@H]1CCCOc2c(cnn2C)-c2cc(cn(C)c2=O)C(=O)Nc2nc3ccc(N4CCOCC4)cc3n2C1 [Example A26, (11R) 5,11,26-trimethyl-16-(morpholin-4-yl)-7-oxa-4,5,13,20,22,26-hexaazapentacyclo[22.3.1.0^{2,6}.0^{13,21}.0^{14,19}]octacosa-1(28),2(6),3,14,16,18,20,24-octaene-23,27-dione] | 16 nM | 18 nM | 8 nM | 19 nM | 405 nM | 33 nM | 2.1 nM | 16 nM | 18 nM | 4.6 nM | 12 nM | 28 nM | 18 nM | 68 nM | 5 nM | 5.6 nM | 2.9 nM | 1090 nM |  |  | 
